A word on the IC50: it is the concentration needed to halve the response being measured.

The experiment deals with T1, Recombinant human H-PGDS (Homo sapiens, UniProt O60760).
T1 construct: made in house; host or cells: E. coli
In words: H-PGDS inhibitory activity (prostaglandin D2 production from prostaglandin H2, measured by LC-MS/MS). The class given is biochemical. The note with it: recombinant human H-PGDS 1.0 nM expressed in E. coli; prostaglandin H2 25 μM; preincubated 15 minutes on ice, reacted on ice for 1 minute; concentration that inhibits prostaglandin D2 production by 50%. In outline: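 PGD2 formed from 25 µM prostaglandin H2 during a 1-min on-ice reaction was measured by LC-MS/MS after an FeCl2/citric acid stop. The enzyme was 1.0 nM E. coli-expressed human H-PGDS in Tris-HCl pH 8.0 buffer with MgCl2, reduced glutathione and γ-globulin, preincubated with compound for 15 min on ice. Production was normalised to DMSO controls minus the no-enzyme background.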

Structures are written as SMILES. Counter-ions that a name gives are not always drawn.

T1 sequence (O60760 whole entry): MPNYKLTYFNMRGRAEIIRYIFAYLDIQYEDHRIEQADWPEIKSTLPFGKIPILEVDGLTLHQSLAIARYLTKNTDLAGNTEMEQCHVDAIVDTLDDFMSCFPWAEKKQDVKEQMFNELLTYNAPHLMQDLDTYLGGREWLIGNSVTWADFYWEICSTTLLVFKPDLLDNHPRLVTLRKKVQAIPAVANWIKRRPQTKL

With `Cc1cc2occc2c(-c2ccc(C(=O)NC3CCN(C(=O)C4CC4)CC3)cc2)n1` [Example 335, N-[1-(cyclopropanecarbonyl)piperidin-4-yl]-4-(6-methylfuro[3,2-c]pyridin-4-yl)benzamide], the IC50 came out at 1.2 nM.

For the compound `O=C(NCCCCCCO)c1ccc(-c2nccc3[nH]ccc23)cc1` [Example 17, N-(6-hydroxyhexyl)-4-(1H-pyrrolo[3,2-c]pyridin-4-yl)benzamide], the concentration for half-maximal inhibition (IC50) stood at 0.85 nM.

With `O=C(N[C@H]1CC[C@H](CO)CC1)c1ccc(-c2nccc3[nH]ccc23)cc1` [Example 3, N-[trans-4-(hydroxymethyl)cyclohexyl]-4-(1H-pyrrolo[3,2-c]pyridin-4-yl)benzamide], the IC50 was found to be 0.63 nM.

Turning to `O=C(Nc1ccc(N2CCC(C(=O)N3CCOCC3)CC2)c(F)c1)c1ccc(-c2nccc3occc23)cc1` [Example 223, N-{3-fluoro-4-[4-(morpholine-4-carbonyl)piperidin-1-yl]phenyl}-4-(furo[3,2-c]pyridin-4-yl)benzamide], the IC50 worked out at 5.3 nM.

On to `CC(C)O[C@H]1CC[C@H](NC(=O)c2ccc(-c3nccc4occc34)cc2)CC1` [Example 288, 4-(furo[3,2-c]pyridin-4-yl)-N-(trans-4-isopropoxycyclohexyl)benzamide], for which the IC50 was 1.3 nM.

On to `Cc1cc2occc2c(-c2ccc(C(=O)N[C@H]3CC[C@](C)(O)CC3)cc2)n1` [Example 344, N-(trans-4-hydroxy-4-methylcyclohexyl)-4-(6-methylfuro[3,2-c]pyridin-4-yl)benzamide], for which the IC50 worked out at 1.7 nM.

`O=C(NC1CCN(c2nccc(CO)n2)CC1)c1ccc(-c2nccc3occc23)cc1` [Example 187, 4-(furo[3,2-c]pyridin-4-yl)-N-{1-[4-(hydroxymethyl)pyrimidin-2-yl]piperidin-4-yl}benzamide]: the IC50 was 0.8 nM.

Consider `CCC(O)[C@H]1CC[C@H](NC(=O)c2ccc(-c3nccc4occc34)cc2)CC1` (stereo partly drawn) [Example 308, 4-(furo[3,2-c]pyridin-4-yl)-N-[trans-4-(1-hydroxypropyl)cyclohexyl]benzamide], for which the IC50 stood at 1.5 nM.

In the case of `O=C(N[C@H]1CCN(c2cc(Cl)ncn2)C1)c1ccc(-c2nccc3occc23)cc1` [Example 227, (S)—N-[1-(6-chloropyrimidin-4-yl)pyrrolidin-3-yl]-4-(furo[3,2-c]pyridin-4-yl)benzamide], the IC50 was 1.4 nM.

`O=C(NCCCO)c1ccc(-c2nccc3[nH]ccc23)cc1` [Example 30, N-(3-hydroxypropyl)-4-(1H-pyrrolo[3,2-c]pyridin-4-yl)benzamide]: the IC50 worked out at 0.65 nM.

As for `Cc1cc(NC(=O)c2ccc(-c3nccc4occc34)cc2)ccc1S(N)(=O)=O` [Example 116, 4-(furo[3,2-c]pyridin-4-yl)-N-(3-methyl-4-sulfamoylphenyl) benzamide], the IC50 is 1.6 nM.

With `O=C(NCCCN1CCS(=O)(=O)CC1)c1ccc(-c2nccc3[nH]ccc23)cc1` [Example 46, N-[3-(1,1-dioxidothiomorpholino)propyl]-4-(1H-pyrrolo[3,2-c]pyridin-4-yl)benzamide], the IC50 was found to be 0.63 nM.

With `COCCn1cc(CNC(=O)c2ccc(-c3nccc4[nH]ccc34)cc2)cn1` [Example 48, N-{[1-(2-methoxyethyl)-1H-pyrazol-4-yl]methyl}-4-(1H-pyrrolo[3,2-c]pyridin-4-yl)benzamide], the IC50 worked out at 0.72 nM.

For the compound `COc1cc(OC)nc(N2CCC(NC(=O)c3ccc(-c4nccc5occc45)cc3)CC2)n1` [Example 163], the IC50 turned out to be 2.6 nM.

Consider `O=C(NC1CC2CCC(C1)C2O)c1ccc(-c2nccc3occc23)cc1` (stereo not shown) [Example 281, 4-(furo[3,2-c]pyridin-4-yl)-N-(8-hydroxybicyclo[3.2.1]octan-3-yl)benzamide], for which the IC50 amounted to 2 nM.

As to `CC(C)(O)[C@H]1CC[C@H](NC(=O)c2ccc(-c3nc(CO)cc4occc34)cc2)CC1` [Example 319, 4-[6-(hydroxymethyl)furo[3,2-c]pyridin-4-yl]-N-[trans-4-(2-hydroxypropan-2-yl)cyclohexyl]benzamide], the IC50 was determined as 1.6 nM.

In the case of `O=C(N[C@H]1CC[C@H](O)CC1)c1ccc(-c2nccc3occc23)c(F)c1` [Example 325, 3-fluoro-4-(furo[3,2-c]pyridin-4-yl)-N-(trans-4-hydroxycyclohexyl)benzamide], the 50% inhibitory concentration (IC50) was found to be 2.3 nM.

With `COCCN[C@H]1CC[C@H](NC(=O)c2ccc(-c3nccc4occc34)cc2)CC1` [Example 301, 4-(furo[3,2-c]pyridin-4-yl)-N-{trans-4-[(2-methoxyethyl)amino]cyclohexyl}benzamide], the IC50 came to 11 nM.

As for `CC(C)N(CCNC(=O)c1ccc(-c2nccc3occc23)cc1)C(C)C` [Example 98, N-[2-(diisopropylamino)ethyl]-4-(furo[3,2-c]pyridin-4-yl)benzamide dihydrochloride], the IC50 stood at 107 nM.

Take `COCCNC(=O)c1ccc(-c2nccc3occc23)cc1` [Example 78, 4-(furo[3,2-c]pyridin-4-yl)-N-(2-methoxyethyl) benzamide]: the IC50 was found to be 50 nM.

Turning to `O=C(N[C@H]1CC[C@H](O)CC1)c1ccc(-c2nccc3sccc23)cc1` [Example 341, N-(trans-4-hydroxycyclohexyl)-4-(thieno[3,2-c]pyridin-4-yl)benzamide], the IC50 was determined as 2.4 nM.

As for `Cn1nnnc1N1CCC(NC(=O)c2ccc(-c3nccc4occc34)c(F)c2)CC1` [Example 323, 3-fluoro-4-(furo[3,2-c]pyridin-4-yl)-N-[1-(1-methyl-1H-tetrazol-5-yl)piperidin-4-yl]benzamide], the IC50 turned out to be 1.1 nM.

Consider `O=C(N[C@H]1CCN(c2ncc(CO)cn2)C1)c1ccc(-c2nccc3occc23)cc1` [Example 193, (S)-4-(furo[3,2-c]pyridin-4-yl)-N-{1-[5-(hydroxymethyl)pyrimidin-2-yl]pyrrolidin-3-yl}benzamide], for which the concentration for half-maximal inhibition (IC50) came to 1 nM.

Regarding `O=C(NC1CCc2ccccc21)c1ccc(-c2nccc3occc23)cc1` (stereo not shown) [Example 97, N-(2,3-dihydro-1H-inden-1-yl)-4-(furo[3,2-c]pyridin-4-yl)benzamide], the IC50 turned out to be 2.8 nM.

Regarding `CC[C@]1(O)CC[C@H](NC(=O)c2ccc(-c3nccc4occc34)cc2)CC1` [Example 289, N-(trans-4-ethyl-4-hydroxycyclohexyl)-4-(furo[3,2-c]pyridin-4-yl)benzamide], the IC50 is 1.6 nM.

For the compound `O=C(NCc1ccncc1)c1ccc(-c2nccc3sccc23)cc1` [Example 60, N-(pyridin-4-ylmethyl)-4-(thieno[3,2-c]pyridin-4-yl)benzamide], the IC50 turned out to be 15 nM.

In the case of `O=C(NC1CCN(c2ncc(CO)o2)CC1)c1ccc(-c2nccc3occc23)cc1` [Example 255, 4-(furo[3,2-c]pyridin-4-yl)-N-{1-[5-(hydroxymethyl)oxazol-2-yl]piperidin-4-yl}benzamide], the half-inhibitory concentration (IC50) was 1.5 nM.

For `NC(=O)c1cnc(N2CC[C@H](NC(=O)c3ccc(-c4nccc5occc45)cc3)C2)nc1` [Example 202, (S)-2-(3-[4-(furo[3,2-c]pyridin-4-yl)benzamide]pyrrolidin-1-yl)pyrimidine-5-carboxamide], the IC50 was 1.5 nM.

For the compound `COCCCNC(=O)c1ccc(-c2nccc3[nH]ccc23)cc1` [Example 24, N-(3-methoxypropyl)-4-(1H-pyrrolo[3,2-c]pyridin-4-yl)benzamide], the IC50 was 0.56 nM.

On to `C[C@]1(O)CC[C@H](NC(=O)c2ccc(-c3nccc4occc34)cc2)CC1` [Example 259, 4-(furo[3,2-c]pyridin-4-yl)-N-(trans-4-hydroxy-4-methylcyclohexyl)benzamide], for which the IC50 amounted to 2 nM.

Take `O=C(NC[C@H]1C[C@@H](O)C1)c1ccc(-c2nccc3occc23)cc1` [Example 219, 4-(furo[3,2-c]pyridin-4-yl)-N-[(cis-3-hydroxycyclobutyl)methyl]benzamide]: the concentration for half-maximal inhibition (IC50) turned out to be 12 nM.

For the compound `O=C(N[C@H]1CCN(c2ncccn2)C1)c1ccc(-c2nccc3occc23)c(F)c1` [Example 328, (S)-3-fluoro-4-(furo[3,2-c]pyridin-4-yl)-N-[1-(pyrimidin-2-yl)pyrrolidin-3-yl]benzamide], the IC50 is 0.74 nM.

As for `Cc1cccc(N2CCC(NC(=O)c3ccc(-c4nccc5occc45)cc3)CC2)n1` [Example 152, 4-(furo[3,2-c]pyridin-4-yl)-N-[1-(6-methylpyridin-2-yl)piperidin-4-yl]benzamide], the IC50 is 2.3 nM.

For `O=C(NC[C@H]1C[C@H](O)C1)c1ccc(-c2nccc3occc23)cc1` [Example 218, 4-(furo[3,2-c]pyridin-4-yl)-N-[(trans-3-hydroxycyclobutyl)methyl]benzamide], the IC50 came out at 21 nM.

For the compound `CCCn1ccc(CNC(=O)c2ccc(-c3nccc4[nH]ccc34)cc2)n1` [Example 44, N-[(1-propyl-1H-pyrazol-3-yl)methyl]-4-(1H-pyrrolo[3,2-c]pyridin-4-yl)benzamide], the IC50 was 0.98 nM.

Turning to `CC(C)(O)[C@H]1CC[C@H](NC(=O)c2ccc(-c3ncc(CO)c4occc34)cc2)CC1` [Example 135, 4-[7-(hydroxymethyl)furo[3,2-c]pyridin-4-yl]-N-[trans-4-(2-hydroxypropan-2-yl)cyclohexyl]benzamide], the IC50 amounted to 14 nM.

Consider `CC(N[C@H]1CC[C@H](NC(=O)c2ccc(-c3nccc4occc34)cc2)CC1)C(F)F` (stereo partly drawn) [Example 302, N-{trans-4-[(1,1-difluoropropan-2-yl)amino]cyclohexyl}-4-(furo[3,2-c]pyridin-4-yl)benzamide], for which the IC50 worked out at 3.2 nM.

(Values after patent US20230339937A1, “CONDENSED RING COMPOUNDS THAT INHIBIT H-PGDS” (SATO PHARMACEUTICAL CO., LTD., priority 2020, published 2023).)
